Laboratory results: US20240316196A1, “METHODS AND COMPOSITIONS FOR DIFFERENTIATION OF PLURIPOTENT STEM CELLS AND DERIVED NATURAL KILLER CELLS” (NUWACELL BIOTECHNOLOGIES CO., LTD., priority 2022, published 2024)

Legend:
Format in all cases: cell-based
K562 cells = assay: Cytotoxicity of Stage 3 iNK cells towards K562 cells (CFSE/7AAD assay); details: added to Stage 3 medium (IL-10 20 ng/mL, IL-18 50 ng/mL); 4 hr co-culture, E:T 3:1 (FIG. 13A)
Experimental: hiPSCs were prepared as described in CN108373998B. On Day −1, Embryoid body (EB) formation (Stage 1-1) was carried out by placing individualized hiPSCs in E8 medium containing 10 μM Blebbistatin in T25 flasks on a bellydancer and culture overnight. On Day 0, lateral mesoderm differentiation (Stage 1-2) was initiated by changing the medium to a Stage 1-2 differentiation medium comprising IF-4 basal medium and supplemented with BMP4 (25 ng/mL), VEGF (15 ng/mL), bFGF (0.5 ng/mL) and CHIR99021 (4 μM) for 2 days. On Day 2, lateral mesoderm differentiation (Stage 1-3) continued for 1 day in a Stage 1-3 differentiation medium comprising IF-4 basal medium and supplemented with BMP4 (25 ng/mL), VEGF (50 ng/mL) and bFGF (0.5 ng/mL) and CHIR99021 (1 μM). On Day 3, HE specification (Stage 1-4) was initiated by adding a Stage 1-4 differentiation medium comprising IF-4 basal medium and supplemented with VEGF (15 ng/mL), bFGF (5 ng/mL), XAV939 (5 μM) for 1 day. […] On Day 11 of co-culture, iNK cells were collected and stained with CD56-PE antibody (BD, #555516), the percentage of CD56+ cells was analyzed by flow cytometry. The cytotoxicity of Stage 3 iNK cells towards K562 cells was detected by CFSE/7AAD assay after 4 hr co-culture at E:T of 3:1.

PBNK cells = assay: Expansion of PBNK cells from PBMCs (NK cell expansion fold; CD56+CD3− % by flow cytometry); details: heparin sodium 0-50 μg/mL in NKSFM
Experimental: The effect of the concentration of nicotinamide (NAM) in an exemplary basal medium on NK cell expansion was evaluated. The above basal medium comprised the following components: IMDM (Sigma): RPMI1640 (Gibco) (50%: 50%); about 1.3 ng/mL of Cupric sulfate, about 3 μM of Ferric sulfate, about 0.432 μg/mL of Zinc sulfate, about 1-50 ng/mL of Na Selenite, about 110 μg/mL of Sodium pyruvate, 0.1-20 μg/mL of Insulin, 1-200 μg/mL of Transferrin, about 1%(v/v) of GlutaMAX-1, 0.1-20 mg/mL of HSA, 1-400 μM of MTG, about 80 μg/mL of Ascorbic acid and indicated concentration of NAM. Peripheral blood mononuclear cells (PBMCs) were isolated by density gradient centrifugation using Ficoll-Paque. On Day 0, PBMCs were plated at 1×10^6 cells/mL in a 48-well-plate in the basal medium with NAM (either 0, 1, 2, 2.5, 3, 3.5, 4, or 5 mM) and stimulated with the following reagents for 3 days: immobilized CD16 antibody (Biolegend, 302014) (135 ng/cm^2), IL-2 (700 IU/mL), IL-15 (10 ng/mL) and OK432 (0.01 KE/mL). On day 3, cells were re-suspended in the above basal medium supplemented with IL-2 (700 IU/mL) and IL-15 (10 ng/mL). Fresh medium was added every other day to maintain cell density below 2×10^6 cells/mL. Cells were collect on Day 14 and stained with CD56-PE and CD3-PerCP-Cy5.5 antibodies, the percentage of CD56^+CD3^− NK cells was analyzed by flow cytometry.
(§1) The effect of heparin sodium concentration in an exemplary NKSFM on NK cell expansion was also evaluated. NKSFM comprised the following components: IMDM (Sigma): DMEM/F12 (Gibco) (50%: 50%); about 20 μM of Ethanolamine, about 1-50 ng/mL of Na Selenite, about 110 μg/mL of Sodium pyruvate, 0.1-20 μg/mL of Insulin, 1-200 μg/mL of Transferrin, about 1%(v/v) of GlutaMAX-1, 0.1-20 mg/mL of Human serum albumin, 1-400 μM of MTG, about 80 μg/mL of Ascorbic acid, about 1-5 mM of NAM, 4%(v/v) of PLT, and indicated concentration of heparin sodium. PBMCs were isolated by density gradient centrifugation using Ficoll-Paque. On Day 0, PBMCs were plated at 1×10^6 cells/mL in a 48-well-plate in NKSFM with heparin sodium (0, 0.5, 1, 3, 10, 30, or 50 μg/mL) and stimulated with the following reagents for 3 days: immobilized CD16 antibody (Biolegend, 302014) (135 ng/cm^2), OK432 (0.01 KE/mL), NeoIL-2 (50 ng/mL), IL-12 (10 ng/mL), IL-18 (50 ng/mL). […] Cells were collect on Day 13 and stained with CD56-PE and CD3-PerCP-Cy5.5 antibodies, the percentage of CD56^+CD3^− NK cells was analyzed by flow cytometry. The specific lysis of K562 tumor cells by NK cells were assessed by CFSE/7-AAD cytotoxicity assay. […] After incubation for 4 hours, cells were stained with 7-AAD (Live/dead staining) and analyzed with flow cytometry.
The effect of PLT percentage (v/v) in an exemplary NKSFM on NK cell expansion was evaluated. […]

K562 tumor cells = assay: Specific lysis of K562 tumor cells by expanded NK cells (CFSE/7-AAD cytotoxicity assay); details: heparin sodium 0-50 μg/mL in NKSFM; E:T 3:1, 4 hours (FIG. 3C)
Experimental: as §1, with “Ficoll-Paque.” for “Ficoll-Paque. On Day 0, PBMCs were plated at 1×10^6 cells/mL in a 48-well-plate in NKSFM with heparin sodium (0, 0.5, 1, 3, 10, 30, or 50 μg/mL) and stimulated with the following reagents for 3 days: immobilized CD16 antibody (Biolegend, 302014) (135 ng/cm^2), OK432 (0.01 KE/mL), NeoIL-2 (50 ng/mL), IL-12 (10 ng/mL), IL-18 (50 ng/mL).”
The effect of PLT percentage (v/v) in an exemplary NKSFM on NK cell expansion was evaluated. […] Cells were collect on Day 14 and stained with CD56-PE and CD3-PerCP-Cy5.5 antibodies, the percentage of CD56^+CD3^− NK cells was analyzed by flow cytometry. The specific lysis of K562 tumor cells by NK cells were assessed by CFSE/7-AAD cytotoxicity assay. […]

Row | Substance | cytotoxicity of iNK cells towards K562 cells (K562 cells) | NK cell expansion fold, effect of concentration (PBNK cells; Day 13 (FIG. 3A)) | percentage of CD56^+CD3^− NK cells, effect of concentration (PBNK cells; Day 13 (FIG. 3B)) | specific lysis of K562 tumor cells, effect of concentration (K562 tumor cells)
1 | IL-10: interleukin added to Stage 3 expansion and maturation medium | significantly improve | – | – | –
2 | heparin sodium | – | significantly influences | minimal effect | minimal effect
